ChEMBL document CHEMBL4311943, “3-[(1S,2S,3R)-2,3-Difluoro-1-hydroxy-7-methylsulfonylindan-4-yl]oxy-5-fluorobenzonitrile (PT2977), a Hypoxia-Inducible Factor 2α (HIF-2α) Inhibitor for the Treatment of Clear Cell Renal Cell Carcinoma” (J Med Chem, 2019)
Calls of active or inactive are those of the source. No cut-off for these calls is given here.

Key:
[1] = Clearance in Sprague-Dawley rat at 1 mg/kg, iv by UPLC-MS analysis; assay type: ADME, organism-based; details: in vivo
[2] = target: Prostaglandin E2 receptor EP3 subtype (Homo sapiens) (UniProt P43115); test: Activity at human Prostanoid EP3 receptor at 10 uM
[3] = target: Prostaglandin D2 receptor (Homo sapiens) (UniProt Q13258); test: Activity at human Prostanoid DP receptor at 10 uM
Prostaglandin D2 receptor (Homo sapiens), sequence (Q13258 whole entry): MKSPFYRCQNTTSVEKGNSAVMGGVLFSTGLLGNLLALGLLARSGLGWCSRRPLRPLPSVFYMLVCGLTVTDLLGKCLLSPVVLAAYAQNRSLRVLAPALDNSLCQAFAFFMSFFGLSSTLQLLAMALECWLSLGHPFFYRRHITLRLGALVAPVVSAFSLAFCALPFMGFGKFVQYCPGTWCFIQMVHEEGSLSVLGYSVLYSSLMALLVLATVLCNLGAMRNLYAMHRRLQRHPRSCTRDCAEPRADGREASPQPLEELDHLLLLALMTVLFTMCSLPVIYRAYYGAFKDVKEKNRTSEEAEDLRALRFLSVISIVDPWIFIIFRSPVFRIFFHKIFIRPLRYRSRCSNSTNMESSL

[4] = target: Protein kinase C eta type (Homo sapiens) (UniProt P24723); test: Activity at human PKCeta at 10 uM
[5] = target: Cyclin-dependent kinase 1/cyclin B1 (Homo sapiens) (UniProt P06493+P14635); test: Activity at human CDK1/cyclinB at 10 uM; assay type: protein-complex assay
UGT2B17 = target: T1, UGT2B17 (Homo sapiens, UniProt O75795); test: Substrate activity at UGT2B17 in human intestinal microsomes assessed as enzyme-mediated glucuronidation by measuring Km at 2 to 1000 uM preincubated for 5 mins followed by UDPGA addition and measured after 60 mins by LC-MS/MS analysis; assay type: ADME, Intestine
T1 sequence (O75795 whole entry): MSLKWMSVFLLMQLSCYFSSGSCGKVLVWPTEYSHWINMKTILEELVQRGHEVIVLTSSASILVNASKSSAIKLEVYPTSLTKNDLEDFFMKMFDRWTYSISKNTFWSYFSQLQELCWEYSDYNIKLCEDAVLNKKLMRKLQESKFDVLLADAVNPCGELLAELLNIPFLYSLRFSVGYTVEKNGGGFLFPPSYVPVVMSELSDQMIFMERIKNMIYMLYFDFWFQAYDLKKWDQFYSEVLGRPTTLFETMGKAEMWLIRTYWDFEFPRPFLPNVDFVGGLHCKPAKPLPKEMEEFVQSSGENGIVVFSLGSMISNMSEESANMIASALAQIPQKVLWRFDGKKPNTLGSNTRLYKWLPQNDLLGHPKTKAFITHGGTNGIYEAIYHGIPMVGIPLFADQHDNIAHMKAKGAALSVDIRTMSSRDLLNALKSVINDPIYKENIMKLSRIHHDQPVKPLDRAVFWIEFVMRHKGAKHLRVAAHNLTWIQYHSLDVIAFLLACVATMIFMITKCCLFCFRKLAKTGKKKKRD

[6] = AUClast in patient with advanced solid tumor at 20 mg, po administered once daily measured on day 15; assay type: ADME, organism-based; parameters: dose 20 mg, route oral, time 0 - last; details: human, in vivo
[7] = Half life in patient with advanced solid tumor at 80 mg, po administered once daily measured on day 15; assay type: ADME, organism-based; details: human, in vivo
[8] = target: Protein kinase C theta type (Homo sapiens) (UniProt Q04759); test: Activity at human PKCtheta at 10 uM
[9] = target: 5-hydroxytryptamine receptor 2B (Homo sapiens) (UniProt P41595); test: Activity at human 5-HT2B receptor at 10 uM
Cytochrome P450 2B6 = Cytochrome P450 2B6 (Homo sapiens, UniProt P20813); test: Inhibition of CYP2B6 in human liver microsomes up to 50 uM using bupropion as substrate measured after 10 mins in presence of NADPH by LC-MS/MS analysis; assay type: ADME
Cytochrome P450 2B6, sequence (P20813 whole entry): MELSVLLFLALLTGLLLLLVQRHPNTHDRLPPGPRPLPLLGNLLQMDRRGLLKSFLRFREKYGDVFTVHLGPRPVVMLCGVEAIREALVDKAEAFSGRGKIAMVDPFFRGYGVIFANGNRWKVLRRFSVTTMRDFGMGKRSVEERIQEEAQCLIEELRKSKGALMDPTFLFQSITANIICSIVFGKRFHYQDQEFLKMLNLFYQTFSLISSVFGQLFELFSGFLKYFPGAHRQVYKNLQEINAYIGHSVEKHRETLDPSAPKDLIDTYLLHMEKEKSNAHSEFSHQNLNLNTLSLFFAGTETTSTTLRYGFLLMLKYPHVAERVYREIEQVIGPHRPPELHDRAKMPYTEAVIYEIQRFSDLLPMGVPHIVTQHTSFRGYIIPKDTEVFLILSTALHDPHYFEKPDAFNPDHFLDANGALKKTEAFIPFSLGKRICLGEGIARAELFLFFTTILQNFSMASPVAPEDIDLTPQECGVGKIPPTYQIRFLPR

[10] = target: Tyrosine-protein phosphatase non-receptor type 1 (Homo sapiens) (UniProt P18031); test: Activity at human PTP1B at 10 uM
[11] = target: Protein kinase C alpha type (Homo sapiens) (UniProt P17252); test: Activity at human PKCalpha at 10 uM
[12] = target: Vasopressin V2 receptor (Homo sapiens) (UniProt P30518); test: Activity at human V2 receptor at 10 uM
[13] = target: Alpha-2A adrenergic receptor (Homo sapiens) (UniProt P08913); test: Activity at human alpha2A receptor at 10 uM
[14] = Plasma concentration in patient with advanced solid tumor at 160 mg, po administered once daily measured on day 15 after 24 hrs; assay type: ADME, organism-based; details: human
[15] = target: C5a anaphylatoxin chemotactic receptor 1 (Homo sapiens) (UniProt P21730); test: Activity at human C5a receptor at 10 uM
[16] = target: Sodium channel protein type 5 subunit alpha (Homo sapiens, UniProt Q14524); test: Activity at human Nav1.5 at 10 uM
Sodium channel protein type 5 subunit alpha, sequence (Q14524 whole entry): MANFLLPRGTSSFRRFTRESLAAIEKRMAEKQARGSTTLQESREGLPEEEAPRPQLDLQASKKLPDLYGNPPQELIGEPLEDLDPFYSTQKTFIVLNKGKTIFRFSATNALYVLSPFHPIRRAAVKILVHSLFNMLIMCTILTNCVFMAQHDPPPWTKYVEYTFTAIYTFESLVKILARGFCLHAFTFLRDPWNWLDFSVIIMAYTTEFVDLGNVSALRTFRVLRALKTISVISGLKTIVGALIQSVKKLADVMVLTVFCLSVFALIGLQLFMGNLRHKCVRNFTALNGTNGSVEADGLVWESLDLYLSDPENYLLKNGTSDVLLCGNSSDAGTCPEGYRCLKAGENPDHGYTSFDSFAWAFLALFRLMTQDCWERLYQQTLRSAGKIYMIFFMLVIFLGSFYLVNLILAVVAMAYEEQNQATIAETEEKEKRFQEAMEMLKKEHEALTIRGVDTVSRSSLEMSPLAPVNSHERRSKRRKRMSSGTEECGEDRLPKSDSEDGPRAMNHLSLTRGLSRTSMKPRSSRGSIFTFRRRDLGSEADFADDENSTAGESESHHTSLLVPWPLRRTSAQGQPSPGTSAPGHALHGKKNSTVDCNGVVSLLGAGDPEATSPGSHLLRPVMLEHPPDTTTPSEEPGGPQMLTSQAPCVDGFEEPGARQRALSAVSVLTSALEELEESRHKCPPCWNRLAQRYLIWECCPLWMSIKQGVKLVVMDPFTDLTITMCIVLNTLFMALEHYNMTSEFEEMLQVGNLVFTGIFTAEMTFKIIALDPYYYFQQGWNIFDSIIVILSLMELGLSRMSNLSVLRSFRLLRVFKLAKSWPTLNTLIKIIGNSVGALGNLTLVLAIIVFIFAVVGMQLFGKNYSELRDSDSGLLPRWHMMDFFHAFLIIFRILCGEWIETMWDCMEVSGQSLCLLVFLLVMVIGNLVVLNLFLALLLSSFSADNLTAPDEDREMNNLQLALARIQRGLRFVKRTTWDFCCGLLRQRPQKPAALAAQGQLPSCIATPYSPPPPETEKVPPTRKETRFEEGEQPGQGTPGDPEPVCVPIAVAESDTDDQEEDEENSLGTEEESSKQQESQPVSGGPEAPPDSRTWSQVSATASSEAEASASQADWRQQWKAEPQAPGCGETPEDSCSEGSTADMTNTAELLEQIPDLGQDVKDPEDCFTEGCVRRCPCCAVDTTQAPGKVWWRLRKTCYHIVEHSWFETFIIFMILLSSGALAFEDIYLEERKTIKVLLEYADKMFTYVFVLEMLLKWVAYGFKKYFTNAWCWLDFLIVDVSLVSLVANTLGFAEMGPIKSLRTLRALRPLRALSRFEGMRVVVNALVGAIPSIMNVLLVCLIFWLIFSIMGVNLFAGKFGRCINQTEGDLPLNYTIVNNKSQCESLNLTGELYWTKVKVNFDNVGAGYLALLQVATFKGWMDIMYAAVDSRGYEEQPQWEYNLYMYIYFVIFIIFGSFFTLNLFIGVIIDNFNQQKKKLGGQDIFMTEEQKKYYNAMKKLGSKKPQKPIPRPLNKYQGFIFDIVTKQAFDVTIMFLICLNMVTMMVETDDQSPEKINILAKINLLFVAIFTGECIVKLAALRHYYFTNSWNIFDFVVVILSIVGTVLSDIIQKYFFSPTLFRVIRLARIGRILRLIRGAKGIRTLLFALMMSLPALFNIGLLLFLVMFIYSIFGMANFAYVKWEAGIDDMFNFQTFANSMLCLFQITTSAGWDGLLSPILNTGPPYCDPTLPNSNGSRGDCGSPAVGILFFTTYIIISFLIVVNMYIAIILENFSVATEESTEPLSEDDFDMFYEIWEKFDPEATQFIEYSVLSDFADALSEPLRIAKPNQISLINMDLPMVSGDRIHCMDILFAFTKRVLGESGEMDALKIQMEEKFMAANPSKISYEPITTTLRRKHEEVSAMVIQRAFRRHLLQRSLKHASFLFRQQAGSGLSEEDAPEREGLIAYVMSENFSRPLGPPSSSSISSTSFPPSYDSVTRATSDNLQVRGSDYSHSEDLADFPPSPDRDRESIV

[17] = Plasma concentration in patient with advanced solid tumor at 120 mg, po administered once daily measured on day 15 after 24 hrs; assay type: ADME, organism-based; details: human
[18] = target: cGMP-dependent protein kinase 1 (Homo sapiens) (UniProt Q13976); test: Activity at human PKG1beta at 10 uM
[19] = target: Tyrosine-protein phosphatase non-receptor type 2 (Homo sapiens) (UniProt P17706); test: Activity at human TCPTP at 10 uM
Tyrosine-protein phosphatase non-receptor type 2 (Homo sapiens), sequence (P17706 whole entry): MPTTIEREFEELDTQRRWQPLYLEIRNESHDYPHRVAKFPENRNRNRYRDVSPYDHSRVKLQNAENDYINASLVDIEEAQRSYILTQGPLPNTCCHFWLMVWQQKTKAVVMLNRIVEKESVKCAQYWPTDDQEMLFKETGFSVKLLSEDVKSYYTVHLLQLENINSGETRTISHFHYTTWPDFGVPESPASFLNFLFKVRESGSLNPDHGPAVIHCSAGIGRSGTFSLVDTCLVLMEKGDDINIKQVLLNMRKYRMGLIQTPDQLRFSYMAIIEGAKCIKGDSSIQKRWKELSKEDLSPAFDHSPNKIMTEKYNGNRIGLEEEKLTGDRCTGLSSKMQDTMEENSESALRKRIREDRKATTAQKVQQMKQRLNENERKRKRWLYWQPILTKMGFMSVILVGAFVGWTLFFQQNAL

[20] = Protein binding in human plasma at 10 uM measured after 4 hrs by LC-MS/MS analysis; assay type: ADME, cell-free; details: read-out: PPB (converted)
[21] = target: Prostacyclin receptor (Homo sapiens) (UniProt P43119); test: Activity at human Prostanoid IP1 receptor at 10 uM; assay type: functional
[22] = target: Oxytocin receptor (Homo sapiens) (UniProt P30559); test: Activity at human oxytocin receptor at 10 uM
Oxytocin receptor (Homo sapiens), sequence (P30559 whole entry): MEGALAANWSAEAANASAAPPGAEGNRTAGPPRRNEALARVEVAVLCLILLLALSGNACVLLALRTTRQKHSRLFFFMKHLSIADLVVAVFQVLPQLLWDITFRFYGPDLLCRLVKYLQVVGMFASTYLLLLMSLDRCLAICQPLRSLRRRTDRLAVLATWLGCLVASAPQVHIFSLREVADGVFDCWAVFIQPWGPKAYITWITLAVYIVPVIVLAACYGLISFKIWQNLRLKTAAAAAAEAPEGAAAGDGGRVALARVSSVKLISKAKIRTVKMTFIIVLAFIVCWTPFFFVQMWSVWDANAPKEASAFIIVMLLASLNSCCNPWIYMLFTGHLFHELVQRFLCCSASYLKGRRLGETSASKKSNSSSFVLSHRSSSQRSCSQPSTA

[23] = target: Gonadotropin-releasing hormone receptor (Homo sapiens) (UniProt P30968); test: Activity at human GNRH at 10 uM
Gonadotropin-releasing hormone receptor (Homo sapiens), sequence (P30968 whole entry): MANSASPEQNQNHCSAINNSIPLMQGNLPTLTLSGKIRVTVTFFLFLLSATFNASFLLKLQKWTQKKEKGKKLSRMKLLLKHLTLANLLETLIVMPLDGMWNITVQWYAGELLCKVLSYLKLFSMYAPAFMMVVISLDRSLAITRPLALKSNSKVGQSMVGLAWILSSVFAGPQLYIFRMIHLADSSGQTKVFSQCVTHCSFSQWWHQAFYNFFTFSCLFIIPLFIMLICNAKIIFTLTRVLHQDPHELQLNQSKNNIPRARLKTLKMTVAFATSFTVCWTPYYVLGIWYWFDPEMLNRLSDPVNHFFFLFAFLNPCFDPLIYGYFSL

[24] = target: Potassium/sodium hyperpolarization-activated cyclic nucleotide-gated channel 4 (Homo sapiens) (UniProt Q9Y3Q4); test: Activity at human HCN4 at 10 uM
[25] = target: Calcium/calmodulin-dependent protein kinase type IV (Homo sapiens) (UniProt Q16566); test: Activity at human CAMK4 at 10 uM
[26] = Dose normalized AUClast in CD-1 mouse at 10 mg/kg, po administered via gavage by UPLC-MS analysis; assay type: ADME, organism-based; details: in vivo
Homo sapiens = organism: Homo sapiens; test: Activity at human BB2 receptor at 10 uM
[27] = target: Platelet-activating factor receptor (Homo sapiens) (UniProt P25105); test: Activity at human PAF receptor at 10 uM
[28] = Dose normalized AUClast in Beagle dog at 5 mg/kg, po administered via gavage by UPLC-MS analysis; assay type: ADME, organism-based, Canis lupus familiaris; details: in vivo
[29] = target: Parathyroid hormone/parathyroid hormone-related peptide receptor (Homo sapiens) (UniProt Q03431); test: Activity at human PTH1 receptor at 10 uM
[30] = target: T2, UDP-glucuronosyltransferase 2B17 (Homo sapiens, UniProt O75795); test: Substrate activity at recombinant human UGT2B17 expressed in baculovirus infected insect cell membranes assessed as enzyme-mediated glucuronidation by measuring Vmax per mg protein at 50 uM preincubated for 5 mins followed by UDPGA addition and measured after 60 mins by LC-MS/MS analysis; assay type: ADME; details: 1 h
T2 sequence (O75795 whole entry): T1 sequence (O75795 whole entry)

[31] = target: Thyrotropin receptor (Homo sapiens) (UniProt P16473); test: Activity at human TSH at 10 uM
[32] = Half life in patient with advanced solid tumor at 20 mg, po administered once daily measured on day 15; assay type: ADME, organism-based; details: human, in vivo
[33] = target: Lysophosphatidic acid receptor 1 (Homo sapiens) (UniProt Q92633); test: Activity at human LPA1 receptor at 10 uM
Lysophosphatidic acid receptor 1 (Homo sapiens), sequence (Q92633 whole entry): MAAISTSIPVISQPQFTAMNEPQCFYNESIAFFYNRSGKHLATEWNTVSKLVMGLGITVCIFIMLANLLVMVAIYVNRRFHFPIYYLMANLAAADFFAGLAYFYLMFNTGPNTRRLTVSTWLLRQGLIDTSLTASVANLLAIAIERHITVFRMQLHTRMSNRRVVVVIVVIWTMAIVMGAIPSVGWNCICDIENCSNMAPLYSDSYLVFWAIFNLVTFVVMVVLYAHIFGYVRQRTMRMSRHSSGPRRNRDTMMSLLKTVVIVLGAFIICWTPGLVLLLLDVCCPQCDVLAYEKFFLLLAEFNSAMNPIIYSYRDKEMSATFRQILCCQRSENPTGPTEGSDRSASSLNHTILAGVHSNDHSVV

[34] = target: Voltage-gated L-type calcium channel (Homo sapiens, UniProt Q13936+Q13698+Q01668+O60840); test: Activity at human L-type calcium channel at 10 uM; assay type: protein assay

CS(=O)(=O)c1ccc(Oc2cc(F)cc(C#N)c2)c2c1[C@H](O)[C@H](F)[C@@H]2F [BELZUTIFAN]
clearance [1]: 19 mL/min/kg | Activity [2]: inactive | Activity [3]: inactive | Activity [4]: inactive | Activity [5]: inactive | Km at 1 h, up to 1000 µM (UGT2B17): 15 µM | AUC(0-t) [6]: 2100 ng·h/mL | half-life [7]: 15.4 h | Activity [8]: inactive | Activity [9]: inactive | inhibition (INH) (Cytochrome P450 2B6): Not Active | Activity [10]: inactive | Activity [11]: inactive | Activity [12]: inactive | Activity [13]: inactive | concentration at 24 h [14]: 490 ng/mL | Activity [15]: inactive | Activity [16]: Not Active | concentration at 24 h [17]: 710 ng/mL | Activity [18]: inactive | Activity [19]: inactive | fraction unbound at 4 h, 10 µM [20]: 0.48 | Activity [21]: inactive | Activity [22]: inactive | Activity [23]: inactive | Activity [24]: inactive | Activity [25]: inactive | AUClast/dose [26]: 37 µM·h | Activity (Homo sapiens): inactive | Activity [27]: inactive | AUClast/dose [28]: 60 µM·h | Activity [29]: inactive | Vmax [30]: 4.7 pmol/min | Activity [31]: inactive | half-life [32]: 12.5 h | Activity [33]: inactive | Activity [34]: Not Active
